Measured values from US20220324909A1, “THERAPEUTIC PEPTIDES” (COHBAR, INC., priority 2019, published 2022).

Experiments:
3T3-L1 adipocytes = experiment: Free fatty acid levels in cultured 3T3-L1 mouse adipocytes (Example 4, 25 μM)
Protocol: Mouse 3T3-L1 adipocytes were seeded at 3,000 cells per well in 96-well plates in Pre-adipocyte Medium (Zen-Bio, Durham, N.C.) and grown to confluence at 37° C. in a humidified atmosphere of 5% CO2/95% air. Two days after confluence, cells were placed in Adipocyte Differentiation Medium (Zen-Bio, Durham, N.C.) and cultured for three additional days at 37° C. in a humidified atmosphere of 5% CO2/95% air. The culture media was then replaced with Adipocyte Maintenance Medium (Zen-Bio) and the cells maintained for an additional 9-12 days at 37° C. in a humidified atmosphere of 5% CO2/95% air with partial medium replacement every other day. Following 12-15 days' differentiation, test peptides were added to a final concentration of 25 μM and incubated for 20-22 hours in Adipocyte Maintenance Medium. After 20-22 hours, isoproterenol (1 nM) was added to all wells except untreated controls and test peptides were replenished. Cells were incubated for a further 3 hours in Assay Buffer (Zen-Bio). Free fatty acid concentrations in the media were determined using a Free Fatty Acid Assay Kit (Zen-Bio) according to the manufacturer's instructions using a plate reader (540 nm). Absorbance values were corrected for untreated background and expressed relative to isoproterenol treated cells. Treatment with isoproterenol (1 nM) alone was used as the free fatty acid level stimulatory control.

3T3-L1 mouse adipocytes [1] = experiment: Free fatty acid levels in 3T3-L1 mouse adipocytes (Example 12, 10 μM); assay type: cell-based; conditions: insulin 100 nM, positive control
Protocol: The effect of the peptides on fatty acid metabolism can be assessed using an assay of free fatty acid levels in cultured cells such as mouse adipocytes. Peptides were initially prepared as 10 mM stock in DMSO, diluted to 1 mM in H2O, and used at a final concentration of 10 μM (0.1% DMSO). […] Insulin at 100 nM was added to control wells.

3T3-L1 mouse adipocytes [2] = experiment: Free fatty acid levels in cultured 3T3-L1 mouse adipocytes and insulin dependence (Example 17); assay type: cell-based; conditions: insulin 10 nM, positive control
H4-IIE cells = experiment: Glucose production in cultured H4-IIE cells and insulin dependence; assay type: cell-based, rat; conditions: insulin 800 μM, modest inhibitor control
In short: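 Rat hepatoma cells incubated 24 h with peptides; glucose released into conditioned medium measured colorimetrically at 570 nm. Untreated cells serve as maximal-production reference, with insulin at […] as a modest inhibitor. Values are means of 2-4 independent experiments run in triplicate.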

MDA-MB-231 cells [3] = experiment: Cell viability, MTS assay in MDA-MB-231 cells; assay type: cell-based, human
Protocol: Test compounds and reference compound staurosporine (Selleckchem) were all dissolved with DMSO at 10 mM stock. […] Activity was calculated relative to DMSO control. […] Cell viability was 3% of the DMSO control value for Staurosporine (10 μM).

MDA-MB-231 cells [4] = experiment: Caspase 3/7 activity in MDA-MB-231 cells (Caspase-Glo 3/7); assay type: cell-based, human
Protocol: The effect of the peptides on cell death/survival can be assessed using a caspase-3 assay. Peptides were dissolved with DMSO at 10 mM stock. […] Staurosporine (Selleckchem) was dissolved with DMSO at 1 mM stock. Caspase-Glo 3/7 Assay Reagent was purchased from Promega (Madison, Wis.). MDA-MB-231 human breast cancer cell line was purchased from American Type Culture Collection (Manassas, Va.). MDA-MB-231 cells were grown in DMEM Medium supplemented with 10% FBS. 100 μg/ml penicillin and 100 μg/ml streptomycin were added to the culture medium. […] 25 μl of Caspase-Glo 3/7 Assay Reagent was added to each well and incubated at 37° C., 5% CO2 for 1 hour. Luminescence for each sample well on the plate was measured by Envision 2104 Multilabel Reader (PerkinElmer, Santa Clara, Calif.). Activity was calculated relative to DMSO control.

C2C12 cells = experiment: Caspase 3/7 activity in C2C12 cells; assay type: cell-based, mouse; conditions: staurosporine 100 nM, positive control
Protocol: The effect of the peptides on cell death/survival can be assessed using a caspase-3/7 assay in cultured cells such as mouse myoblast cells. Peptides were initially prepared as 10 mM stock in DMSO, diluted to 1 mM in H2O, and used at a final concentration of 10 μM (0.1% DMSO). […] Staurosporine (Abcam, Cambridge, Mass.) was dissolved at 10 mM in DMSO as a stock solution. Caspase-Glo 3/7 Assay Reagent was purchased from Promega (Madison, Wis.). C2C12 cell line was purchased from American Type Culture Collection (Manassas, Va.). C2C12 cells were grown in DMEM supplemented with 20% FBS with 100 IU/ml penicillin and 100 μg/ml streptomycin. […] C2C12 cells were seeded at 4,000 cells per well on 96-well plates. […] Caspase 3/7 activity was determined using a Caspase-Glo 3/7 Assay kit according to the manufacturer's instructions. Luminescence for each sample well on the plate was measured using a Cytation 3 plate reader (BioTek, Winooski, Vt.). Activity was calculated relative to 0.1% DMSO control.

MCF-7 cells = experiment: Cell viability, MTS assay in MCF-7 cells
Protocol: Peptides and reference compound staurosporine (Selleckchem) were dissolved with DMSO at 10 mM stock. CellTiter 96@ AQueous One Solution Reagent (MTS assay reagent) was purchased from Promega (Madison, Wis.). MCF-7 human breast cancer cell line was purchased from American Type Culture Collection (Manassas, Va.). MCF-7 cells were grown in EMEM Medium supplemented with 10% FBS and 0.01 mg/ml human recombinant insulin. 100 μg/ml penicillin and 100 μg/ml streptomycin were added to the culture medium. Cells were incubated with test peptides at 10 μM at 37° C. in a humidified atmosphere of 5% CO2 and 95% air for 72 hours. 5 μl of CellTiter 96@ AQueous One Solution Reagent (MTS assay reagent) was added to each well and incubated at 37° C., 5% CO2 for 5 hours. Absorbance at 492 nm was recorded by Envision 2104 Multilabel Reader. Treatment with DMSO alone was used as the cell viability activity control. The relative standard deviation of the DMSO control was 3%.

[5] = staurosporine 10 μM, positive control

## insulin [reference compound]
3T3-L1 adipocytes; insulin 100 nM, positive control
  Free fatty acid levels, % of isoproterenol control value: < 5%
3T3-L1 mouse adipocytes [1]
  Free fatty acid levels, % of isoproterenol control value: < 5%
3T3-L1 mouse adipocytes [2]
  Free fatty acid levels, % of isoproterenol control value: < 5%
H4-IIE cells
  Glucose levels, % of untreated control value: 20-50%

## CN[C@@H]1C[C@H]2O[C@@](C)([C@@H]1OC)n1c3ccccc3c3c4c(c5c6ccccc6n2c5c31)C(=O)NC4 [staurosporine, reference compound]
MDA-MB-231 cells [3]; [5]
  Cell viability, % of DMSO control value: 3%
MDA-MB-231 cells [4]; staurosporine 0.05 nM, positive control
  Caspase activity, % of background-corrected DMSO control value: 130%
C2C12 cells
  Caspase 3/7 activity, % of background-corrected DMSO control value: 670%
MCF-7 cells; [5]
  Cell viability, % of background corrected DMSO control value: < 5%

## 2 (MRRIIGIVFQCLCGL) [compound 2]
MDA-MB-231 cells [3]; 72 hours, relative to DMSO control, concentration not given
  MTS Assay, Percent of Control Activity: 79%
3T3-L1 adipocytes; peptide 25 μM, 20-22 h then 3 h with isoproterenol 1 nM, relative to isoproterenol control
  Free Fatty Acid Levels, Percent of Control Value: 97%
MDA-MB-231 cells [4]; peptide 10 μM, 18 hours, relative to DMSO control
  Caspase 3/7 Activity, Percent of Control Activity: 62%
MCF-7 cells; peptide 10 μM, 72 hours, relative to DMSO control
  MTS Assay, Percent of Control Activity: 67%
